9 compounds from PubChem BioAssay (NCI) can be followed below.

The structures appear in SMILES notation. Where “and” joins values, the source holds several entries; their conditions need not be identical. Equal values may be shown once.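 How tested: cells in 96-well plates exposed to compound for 48 hours at five concentrations. At the GI50, growth is halved. Definition used: TGI = concentration required for complete inhibition of growth.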 A value given as a limit tells only on which side of the number the result lay.

Among the test systems are UACC-257 melanoma; RPMI-8226 leukemia; SNB-19 CNS; SF-268 CNS; A498 renal; SW-620 colon; NCI-H522 lung; UO-31 renal; SR leukemia; SK-OV-3 ovarian.
Assay in all cases: NCI tumour cell line growth inhibition, 48 h

With `Cn1c(=O)c(Oc2ccc(F)cc2F)cc2cnc(NC3CCC(O)CC3)nc21` (stereo not drawn), the GI50 with UACC-257 melanoma is more than 25 µM; in the assay with RPMI-8226 leukemia it was more than 25000 nM; with SNB-19 CNS it was more than 25000 nM; with SF-268 CNS, more than 25000 nM; in the assay with A498 renal it was 5890 nM; in the assay on SW-620 colon, more than 25000 nM. Also, the GI50 with NCI-H522 lung is more than 25000 nM; with UO-31 renal, 12100 nM; with SR leukemia it was more than 25000 nM; in the assay with SK-OV-3 ovarian, more than 25000 nM. Also, the TGI with UACC-257 melanoma, in the assay with RPMI-8226 leukemia, in the assay with SNB-19 CNS, with SF-268 CNS, with A498 renal and in the assay on SW-620 colon was more than 25 µM each time. Further, the TGI with NCI-H522 lung, with UO-31 renal, in the assay with SR leukemia and in the assay on SK-OV-3 ovarian was more than 25 µM in each case.

For `CCC(=C(c1ccc(OCCN(CC)CC)cc1)c1ccc(OCCN(CC)CC)cc1)c1ccc(Cl)cc1`, the GI50 is 0.62 µM with UACC-257 melanoma; 714 nM in the assay on RPMI-8226 leukemia; 584 nM with SNB-19 CNS; 604 nM in the assay with SF-268 CNS; 591 nM in the assay with A498 renal; 572 nM in the assay on SW-620 colon. The GI50 in the assay on NCI-H522 lung was 564 nM; with UO-31 renal it was 484 nM; in the assay on SR leukemia it was 249 nM; in the assay on SK-OV-3 ovarian it was 594 nM. Further, the TGI with UACC-257 melanoma was determined as 1.25 µM; in the assay on RPMI-8226 leukemia, 1.64 µM; in the assay on SNB-19 CNS, 1.09 µM; with SF-268 CNS, 1.23 µM; in the assay on A498 renal, 1.66 µM; in the assay on SW-620 colon it was 1.12 µM. Besides, the TGI in the assay with NCI-H522 lung worked out at 1.21 µM; in the assay with UO-31 renal, 0.94 µM; with SR leukemia, 0.981 µM; in the assay with SK-OV-3 ovarian it was 1.16 µM.

On to `Cc1c2cc[n+](C)cc2c(C)c2c1[nH]c1ccc(Oc3ccccc3)cc12`, for which the TGI in the assay on UACC-257 melanoma was 6.96 µM and 8.42 µM; with RPMI-8226 leukemia it was 23.8 µM and 16.1 µM; in the assay on SNB-19 CNS, 0.887 µM and 4.09 µM; in the assay on SF-268 CNS, 14.7 µM and > 19.9 µM; in the assay on A498 renal it was more than 100 µM; in the assay on SW-620 colon, > 37.9 µM and 40.6 µM. The TGI was 12.1 µM and 8.56 µM in the assay with NCI-H522 lung; 40 µM and > 38.1 µM in the assay with UO-31 renal; > 71.9 µM and 8.31 µM with SR leukemia; > 73.5 µM and 21.4 µM in the assay with SK-OV-3 ovarian. In addition, the GI50 was 230 nM with SNB-19 CNS; 2410 nM and 743 nM in the assay on NCI-H522 lung; 4390 nM and 1870 nM in the assay with SR leukemia.

With `O=C(/C=C/c1ccc(OCC(=O)N2CCN(c3ccccc3)CC2)cc1)c1ccccc1`, the TGI with UACC-257 melanoma is more than 100 µM; in the assay with RPMI-8226 leukemia, more than 27.2 µM; with SNB-19 CNS it was more than 82.9 µM; in the assay with SF-268 CNS, more than 89.4 µM; in the assay with A498 renal, more than 100 µM; in the assay on SW-620 colon, more than 28.4 µM. The TGI in the assay on NCI-H522 lung is more than 56.8 µM; with UO-31 renal, more than 62 µM; with SR leukemia it was 7.45 µM; in the assay with SK-OV-3 ovarian, more than 100 µM.

For `CC(C)(CCc1nc2ccccc2[nH]1)C(=O)O`, the TGI with UACC-257 melanoma, in the assay on RPMI-8226 leukemia, in the assay on SNB-19 CNS, in the assay with SF-268 CNS, with A498 renal and in the assay on SW-620 colon was more than 100 µM throughout. The TGI in the assay on NCI-H522 lung, in the assay with UO-31 renal, in the assay with SR leukemia and in the assay on SK-OV-3 ovarian was more than 100 µM in each case.

For `CS(=O)(=O)Nc1ccc(Nc2c3ccccc3nc3cc(Cl)ccc23)cc1`, the GI50 was 3.33 µM in the assay on UACC-257 melanoma; 2560 nM with RPMI-8226 leukemia; 1510 nM with SNB-19 CNS; 2570 nM with SF-268 CNS; 1150 nM in the assay on A498 renal; 686 nM with SW-620 colon. Moreover, the GI50 in the assay on NCI-H522 lung was 2330 nM; with UO-31 renal, 580 nM; in the assay on SR leukemia, 177 nM; with SK-OV-3 ovarian it was 1280 nM. In addition, the TGI with UACC-257 melanoma was 16.7 µM; in the assay on RPMI-8226 leukemia it was 25.6 µM; in the assay with SNB-19 CNS, 17.5 µM; with SF-268 CNS, 19.6 µM; with A498 renal it was 7.22 µM; in the assay on SW-620 colon, 15.4 µM. Further, the TGI was 15.4 µM with NCI-H522 lung, 8.96 µM in the assay with UO-31 renal, 16 µM with SR leukemia and 13.3 µM with SK-OV-3 ovarian.

On to `COc1cc(-c2nn(-c3cccc(NC(=O)c4cccc(C(F)(F)F)c4)c3)cc2-c2ccncc2)ccc1Cl`, for which the GI50 was 27.9 µM in the assay with UACC-257 melanoma; 1570 nM with RPMI-8226 leukemia; 2460 nM in the assay with SNB-19 CNS; 2130 nM in the assay with SF-268 CNS; 687 nM in the assay with A498 renal; 2310 nM in the assay with SW-620 colon. The GI50 is 1050 nM in the assay with NCI-H522 lung, 969 nM with UO-31 renal, 838 nM in the assay on SR leukemia and 2290 nM with SK-OV-3 ovarian. Further, the TGI in the assay with UACC-257 melanoma was more than 50 µM; in the assay on RPMI-8226 leukemia, 26.6 µM; in the assay on SNB-19 CNS it was more than 50 µM; with SF-268 CNS, more than 50 µM; in the assay with A498 renal, 2.78 µM; in the assay with SW-620 colon it was more than 50 µM. The TGI in the assay with NCI-H522 lung is 3.85 µM; with UO-31 renal it was more than 50 µM; with SR leukemia, 4.59 µM; in the assay on SK-OV-3 ovarian, more than 50 µM.

In the case of `Cc1c(C(=O)C/C(=N/NC(=O)CC#N)C(N)=O)[n+](=O)c2ccccc2n1[O-]`, the TGI was more than 100 µM in the assay on UACC-257 melanoma; more than 100 µM in the assay with RPMI-8226 leukemia; more than 100 µM in the assay with SNB-19 CNS; more than 100 µM with SF-268 CNS; more than 100 µM in the assay on A498 renal; 34.5 µM with SW-620 colon. Moreover, the TGI was 51.6 µM in the assay on NCI-H522 lung, more than 100 µM with UO-31 renal, more than 100 µM in the assay with SR leukemia and more than 100 µM with SK-OV-3 ovarian.

For the compound `COc1cc(/C=C/C(=O)c2c(-c3ccc(Cl)cc3)nc3sc(C)nn23)cc(OC)c1OC`, the GI50 is 16 µM in the assay with UACC-257 melanoma; 1820 nM in the assay with RPMI-8226 leukemia; more than 100000 nM in the assay with SNB-19 CNS; 24600 nM in the assay on SF-268 CNS; 51900 nM in the assay with A498 renal; 10200 nM in the assay with SW-620 colon. For the same compound, the GI50 in the assay with NCI-H522 lung is 2940 nM; in the assay on UO-31 renal, 7270 nM; in the assay on SR leukemia, 4900 nM; with SK-OV-3 ovarian it was 66600 nM. For the same compound, the TGI in the assay with UACC-257 melanoma was more than 100 µM; in the assay with RPMI-8226 leukemia, 5.78 µM; in the assay with SNB-19 CNS, more than 100 µM; with SF-268 CNS, more than 100 µM; in the assay with A498 renal, more than 100 µM; in the assay with SW-620 colon, more than 100 µM. In addition, the TGI in the assay on NCI-H522 lung was 8.8 µM; in the assay with UO-31 renal, more than 100 µM; in the assay on SR leukemia it was more than 100 µM; in the assay on SK-OV-3 ovarian, more than 100 µM.
